Data on twelve molecules can be found in patent US11976064B2, “Toll-like receptor agonists” (Pfizer Inc., priority 2019, dated 2024).

For this assay, the system named is peripheral blood mononuclear cells (PBMCs). In words: IFNα release assay from peripheral blood mononuclear cells (HTRF). Format: cell-based. As to conditions: freshly isolated human PBMC, IFNα by HTRF, geometric mean when tested more than once. Here is the method:
The Examples described were tested for biological activity in functional cellular assays using HEK293 cells stably overexpressing human TLR7 or TLR8. The assays tested for the ability of each Example to stimulate secretion of interferon alpha (IFNα) in human primary blood mono nuclear cells (PBMC).
To determine the ability of each Example to induce the release of interferon alpha (IFNα) from freshly isolated peripheral blood mononuclear cells (PBMCs), a Homogeneous Time-Resolved Fluorescence (HTRF) assay was utilized. Human whole blood was collected from healthy donors via vein puncture in accordance with Pfizer protocols (Protocol No. GOHW RDP-01), approved by the Shulman Institutional Review Board. 50 ml of human venous blood sample from individual donors was heparinized by addition to a conical tube containing 714 units of Heparin Sodium Injection MDV (Fresenius Kabi, cat #70041) followed by gentle inversion of the tube several times. Blood was then transferred to a flask, the conical tube was rinsed with 40 ml of PBS containing 2 mM EDTA (PBS-EDTA), and the rinse was added to the blood flask with gently mixing. 30 ml of the diluted blood was added to 3 separate histopaque tubes (Sigma, cat #A0561), applying directly to the frit. Histopaque tubes were then spun for 15 min at 1000×g in a tabletop centrifuge. Following density separation, excess upper phase of plasma was aspirated to within ˜5 ml above the interphase and remaining plasma along with the cloudy interphase containing PBMCs were gently decanted into a new conical tube. 15 ml of PBS-EDTA was added to the histopaque tube and swirled gently to remove remaining PBMCs that adhered to the tube wall and this wash was added to the existing PBMCs in the tube. The volume of the tube was brought to 40 ml with PBS-EDTA and tubes were spun at 250×g for 12 minutes at room temperature. After aspiration of the supernatant, the pellet was gently resuspended with 10 ml of PBS-EDTA and centrifuged again at 250×g for 12 minutes. The resulting supernatant was decanted, and the pellet was resuspended in 20 ml of ACK lysing buffer (ThermoFisher, cat #A10492-01) followed by incubation at room temperature for 5 minutes. The volume of each tube was brought to 50 ml with the addition of PBS-EDTA and tubes were spun at 177×g for 12 minutes at room temperature. The PBMC pellet was again resuspended in 10 ml of PBS without EDTA and tubes were spun for a final time at 177×g for 10 minutes. The supernatant was decanted and PBMCs were resuspended in Assay Media (RPMI base media with 10% FBS heat inactivated, 2 mM Glutamax and Penicillin/Streptomycin).
Each Example was prepared for the assay using 11-point half log serial dilutions from a 2.5 mM DMSO stock solution and 400 nl was spotted into 384 well Viewplate (Perkin Elmer, cat #6007480). Positive and negative controls (previously described) were also spotted within the assay plate and were used to determine percent effect during the analysis process. PBMCs were counted and plated at a density of 100,000 cells/[…]/well; plates were covered with a prewet microclime lid to prevent evaporation and incubated for 24 hrs at 37° C. in a 5% CO2 atmosphere. At the end of the incubation, the microclime lid was removed and the plates were spun at 1000 rpm for 5 minutes. 16 μl of conditioned media from the cell plate was transferred into a separate 384 well low-volume plate (Greiner One, 784080). IFNα levels were quantitated using an HTRF® kit (Cisbio, cat #62HIFNAPEG) according to the manufacturer's instructions. The kit supplies two different specific antibodies, one labelled with D2 (acceptor) and the other labelled with cryptate (donor), and detection buffer. The antibody stocks were diluted […] in detection buffer. For one 384 well plate, 62.5 μl of D2 antibody stock and 62.5 μl of cryptate antibody stock was added to 2.375 ml of detection buffer and mixed well. […]

The molecule `CCOCc1nc2c(N)nc(C)c(C)c2n1CC(C)(CO)COC` (single isomer, unassigned) [Example 6, 3-(4-amino-2-(ethoxymethyl)-6,7-dimethyl-1H-imidazo[4,5-c]pyridin-1-yl)-2-(methoxymethyl)-2-methylpropan-1-ol] yielded an EC50 (24 hrs) of 22 nM.
Take `CCOCc1nc2c(N)nc(C)c(C)c2n1CC(C)(CO)COC` (single isomer, unassigned) [Example 7, 3-(4-amino-2-(ethoxymethyl)-6,7-dimethyl-1H-imidazo[4,5-c]pyridin-1-yl)-2-(methoxymethyl)-2-methylpropan-1-ol]: the EC50 (24 hrs) worked out at 198 nM.
`CCOCc1nc2c(N)nc(C)c(C)c2n1CC(CO)CO` [Example 1, 2-((4-amino-2-(ethoxymethyl)-6,7-dimethyl-1H-imidazo[4,5-c]pyridin-1-yl)methyl)propane-1,3-diol] displayed an EC50 (Homo sapiens, PBMC, 24 h) of 99 nM.
Under “Homo sapiens, PBMC, 24 h”, `CCOCc1nc2c(N)nc(C)c(C)c2n1CC(C)(CO)CO` [Example 2, 2-((4-amino-2-(ethoxymethyl)-6,7-dimethyl-1H-imidazo[4,5-c]pyridin-1-yl)methyl)-2-methylpropane-1,3-diol] yielded a concentration for a half-maximal effect (EC50) of 19 nM.
Molecule `CCOCc1nc2c(N)nc3ccccc3c2n1CC(C)(CO)CO` [Example 3, 2-((4-amino-2-(ethoxymethyl)-1H-imidazo[4,5-c]quinolin-1-yl)methyl)-2-methylpropane-1,3-diol] showed a concentration for a half-maximal effect (EC50) (Homo sapiens, PBMC, 24 h) of 7 nM.
As for `Cc1nc(N)c2nc(CC(F)(F)F)n(CC(C)(CO)CO)c2c1C` [Example 8, 2-((4-amino-6,7-dimethyl-2-(2,2,2-trifluoroethyl)-1H-imidazo[4,5-c]pyridin-1-yl)methyl)-2-methylpropane-1,3-diol], the midpoint of the response (Homo sapiens, PBMC, 24 h), the EC50, lay at 48 nM.
On to `CCOCc1nc2c(N)nc(C)c(C)c2n1CC(CC)(CO)CO` [Example 9, 2-((4-amino-2-(ethoxymethyl)-6,7-dimethyl-1H-imidazo[4,5-c]pyridin-1-yl)methyl)-2-ethylpropane-1,3-diol], for which the concentration for a half-maximal effect (EC50) (Homo sapiens, PBMC, 24 h) worked out at 2 nM.
Where the note is “Homo sapiens, PBMC, 24 h”, `CCCCc1nc2c(N)nc3ccccc3c2n1CC(C)(CO)CO` [Example 10, 2-((4-amino-2-butyl-1H-imidazo[4,5-c]quinolin-1-yl)methyl)-2-methylpropane-1,3-diol] came in with an EC50 of 1 nM.
For `CCCCc1nc2c(N)nc3c(c2n1CC(C)(CO)CO)CCCC3` [Example 13, 2-((4-amino-2-butyl-6,7,8,9-tetrahydro-1H-imidazo[4,5-c]quinolin-1-yl)methyl)-2-methylpropane-1,3-diol], the concentration for a half-maximal effect (EC50) (Homo sapiens, PBMC, 24 h) turned out to be 0.4 nM.
The same measure, in the same setting: in the case of `CCCCc1nc2c(N)nc3c(c2n1CC(C)(CO)CO)CCC3` [Example 14, 2-((4-amino-2-butyl-7,8-dihydrocyclopenta[b]imidazo[4,5-d]pyridin-1(6H)-yl)methyl)-2-methylpropane-1,3-diol] it was 7 nM; in that of `CCc1nc2c(N)nc3ccccc3c2n1CC(C)(CO)CO` [Example 15, 2-((4-amino-2-ethyl-1H-imidazo[4,5-c]quinolin-1-yl)methyl)-2-methylpropane-1,3-diol], 12 nM.
Where the note is “Homo sapiens, PBMC, 24 h”, `CCCc1nc2c(N)nc3ccccc3c2n1CC(C)(CO)CO` [Example 16, 2-((4-amino-2-propyl-1H-imidazo[4,5-c]quinolin-1-yl)methyl)-2-methylpropane-1,3-diol] returned a half-maximal effective concentration (EC50) of 11 nM.
